This assay deals with PANC-1 (human pancreatic cancer-derived cell line). The experiment in a line: MTS assay on Panc-1 (human pancreas carcinoma cell line). It counts as cell-based. The following applies: 144 h; for inhibition at 0.15625 µM: read-out: Growth inhibition (%) 0.15625 μM; for IC50: PANC-1, MTS method, cell survival 6 days after exposure, 4-parameter logistic fit; for inhibition at 0.3125 µM: read-out: Growth inhibition (%) 0.3125 μM; for inhibition at 1 µM: read-out: Growth inhibition (%) 1 μM. In a few lines:
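PANC-1 cells in D-MEM + 10% FBS at 37 °C, 5% CO2 exposed to 2-fold serial DMSO dilutions of compound for 6 days. Survival read by MTS (492 minus 630 nm, blank-corrected) relative to DMSO control as 100%; mean of 3 runs, 4-parameter logistic fit.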

One may read the inhibition as the drop in the measured response relative to a control, in per cent. As to `CC(C)C[C@H]1ON(C(=O)/C=C/c2nc(C#CC3CCOCC3)cs2)[C@H]2CN([C@@H]3CCN(CCCCO)C3)C(=O)[C@H](CC(C)(C)C)N2C1=O` [ID-94, (3R,6S,9aS)-8-((R)-1-(4-hydroxybutyl)pyrrolidin-3-yl)-3-isobutyl-6-neopentyl-1-((E)-3-(4-((tetrahydro-2H-pyran-4-yl)ethynyl)thiazol-2-yl)acryloyl)tetrahydropyrazino[2,1-c] [1,2,4]oxadiazine-4,7-(3H,6H)-dione], the inhibition at 0.15625 µM (PANC-1, MTS, 6 days) is 42.3%.
For orientation: IC50 means the concentration that gives 50% inhibition. Regarding `CC(C)C[C@@H]1ON(C(=O)/C=C/c2nc3ccccc3s2)[C@@H]2CN([C@@H]3CCN(CCCCO)C3)C(=O)[C@H](CC(C)(C)C)N2C1=O` [ID-95, (3S,6S,9aR)-1-((E)-3-(benzo[d]thiazol-2-yl)acryloyl)-8-((R)-1-(4-hydroxybutyl)pyrrolidin-3-yl)-3-isobutyl-6-neopentyltetrahydropyrazino[2,1-c][1,2,4]oxadiazine-4,7(3H,6H)-dione], the IC50 worked out at 1.4 µM. In other words, the single-digit micromolar range.
As to `CC(C)C[C@H]1CN(C(=O)/C=C/c2nc3ccccc3s2)[C@H]2CN([C@@H]3CCN(CCCCO)C3)C(=O)[C@H](CC(C)(C)C)N2C1=O` [ID-96, (3S,6S,9aR)-1-((E)-3-(benzo[d]thiazol-2-yl)acryloyl)-8-((R)-1-(4-hydroxybutyl)pyrrolidin-3-yl)-3-isobutyl-6-neopentylhexahydro-4H-pyrazino[1,2-a]pyrimidine-4,7(6H)-dione], the inhibition at 0.3125 µM (PANC-1, MTS, 6 days) was -1.7%. Also, where the note is “PANC-1, MTS, 6 days, 10 μM, read-out: Growth inhibition (%) 10 μM”, the inhibition at 10 µM was 101%.
The compound `CC(C)C[C@H]1ON(C(=O)/C=C/c2nc(C#CCOCCO)cs2)[C@H]2CN(C3CCN(C(C)C)CC3)C(=O)[C@H](CC(C)(C)C)N2C1=O` [ID-97, (3R,6S,9aS)-1-((E)-3-(4-(3-(2-hydroxyethoxy)prop-1-yn-1-yl)thiazol-2-yl)acryloyl)-3-isobutyl-8-(1-isopropylpiperidin-4-yl)-6-neopentyltetrahydropyrazino[2,1-c][1,2,4]oxadiazine-4,7 (3H, 6H)-dione] came in with an IC50 of 0.15 µM. Moreover, the inhibition at 0.15625 µM (PANC-1, MTS, 6 days) was found to be 51%.
As for `CC(C)C[C@H]1ON(C(=O)/C=C/c2nc3cc(O)ccc3s2)[C@H]2CN(C3CCN(C(C)C)CC3)C(=O)[C@H](CC(C)(C)C)N2C1=O` [ID-98, (3R,6S,9aS)-1-((E)-3-(5-hydroxybenzo[d]thiazol-2-yl)acryloyl)-3-isobutyl-8-(1-isopropylpiperidin-4-yl)-6-neopentyltetrahydropyrazino[2,1-c][1,2,4]oxadiazine-4,7(3H,6H)-dione], for the setting “PANC-1, MTS, 6 days”, the inhibition at 0.15625 µM amounted to 61.7%.
Still for that read-out and setting: under `CC(C)N1CCC(N2C[C@@H]3N(C(=O)/C=C/c4nc(C#CCCCCO)cs4)O[C@H](CC4CC4)C(=O)N3[C@@H](CC(C)(C)C)C2=O)CC1` [ID-99, (3R,6S,9aS)-3-(cyclopropylmethyl)-1-((E)-3-(4-(6-hydroxyhex-1-yn-1-yl)thiazol-2-yl)acryloyl)-8-(1-isopropylpiperidin-4-yl)-6-neopentyltetrahydropyrazino[2,1-c] [1,2,4]oxadiazine-4,7(3H,6H)-dione] stands 61.1%; under `C#Cc1sc(/C=C/C(=O)N2O[C@H](CC(C)C)C(=O)N3[C@@H]2CN(C2CCN(C(C)C)CC2)C(=O)[C@@H]3CC(C)(C)C)nc1C#CCCCO` [ID-100, (3R,6S,9aS)-1-((E)-3-(5-ethynyl-4-(5-hydroxypent-1-yn-1-yl)thiazol-2-yl)acryloyl)-3-isobutyl-8-(1-isopropylpiperidin-4-yl)-6-neopentyltetrahydropyrazino[2,1-c][1,2,4]oxadiazine-4,7(3H,6H)-dione], 99.8%.
On the same count and under the same terms, with `CC(C)C[C@H]1ON(C(=O)/C=C/c2nc3cc(OCCCO)ccc3s2)[C@H]2CN(C3CCN(C(C)C)CC3)C(=O)[C@H](CC(C)(C)C)N2C1=O` [ID-101, (3R,6S,9aS)-1-((E)-3-(5-(3-hydroxypropoxy)benzo[d]thiazol-2-yl)acryloyl)-3-isobutyl-8-(1-isopropylpiperidin-4-yl)-6-neopentyltetrahydropyrazino[2,1-c][1,2,4]oxadiazine-4,7(3H,6H)-dione] the figure was 65.6%; with `CC(C)C[C@H]1ON(C(=O)/C=C/c2nc(C#CCCCO)cs2)[C@H]2CN(C3CCN(C4CC4)CC3)C(=O)[C@H](CC(C)(C)C)N2C1=O` [ID-102, (3R,6S,9aS)-8-(1-cyclopropylpiperidin-4-yl)-1-((E)-3-(4-(5-hydroxypent-1-yn-1-yl)thiazol-2-yl)acryloyl)-3-isobutyl-6-neopentyltetrahydropyrazino[2,1-c][1,2,4]oxadiazine-4,7(3H,6H)-dione], 36.9%.
Turning to `C#Cc1sc(/C=C/C(=O)N2O[C@H](CC(C)C)C(=O)N3[C@@H]2CN(C2CCN(C)CC2)C(=O)[C@@H]3CC(C)(C)C)nc1C#CCCCO` [ID-103, (3R,6S,9aS)-1-((E)-3-(5-ethynyl-4-(5-hydroxypent-1-yn-1-yl)thiazol-2-yl)acryloyl)-3-isobutyl-8-(1-methylpiperidin-4-yl)-6-neopentyltetrahydropyrazino[2,1-c][1,2,4]oxadiazine-4,7 (3H, 6H)-dione], where the note is “PANC-1, MTS, 6 days”, the inhibition at 0.3125 µM turned out to be 99.6%.
With `CC(C)(C)C[C@H]1C(=O)N([C@@H]2CCN(CCCCO)C2)C[C@@H]2N(C(=O)/C=C/c3nc4ccccc4s3)O[C@H](C[C@H]3C[C@@H]3CCc3ccccc3)C(=O)N21` [ID-104, (3R,6S,9aS)-1-((E)-3-(benzo[d]thiazol-2-yl)acryloyl)-8-((R)-1-(4-hydroxybutyl)pyrrolidin-3-yl)-6-neopentyl-3-(((1R,2S)-2-phenethylcyclopropyl)methyl)tetrahydropyrazino[2,1-c][1,2,4]oxadiazine-4,7(3H,6H)-dione], under “PANC-1, MTS, 6 days”, the inhibition at 0.3125 µM turned out to be 30.1%.
Turning to `CC(C)(C)C[C@H]1C(=O)N([C@@H]2CCN(CCCCO)C2)C[C@@H]2N(C(=O)/C=C/c3cnc4ccccc4n3)O[C@H](CCCCNC(=O)OCc3ccccc3)C(=O)N21` [ID-105, benzyl (4-((3R,6S,9aS)-8-((R)-1-(4-hydroxybutyl)pyrrolidin-3-yl)-6-neopentyl-4,7-dioxo-1-((E)-3-(quinoxalin-2-yl)acryloyl)octahydropyrazino[2,1-c][1,2,4]oxadiazin-3-yl)butyl)carbamate], the inhibition at 30 µM (PANC-1, MTS, 6 days, 30 μM, read-out: Growth inhibition (%) 30 μM) was 98.3%.
Consider `CC(C)N1CCC(N2C[C@@H]3N(C(=O)/C=C/c4cnc5ccccc5n4)O[C@H](CC4CCCCC4)C(=O)N3[C@@H](CC(C)(C)C)C2=O)CC1` [ID-106, (3R,6S,9aS)-3-(cyclohexylmethyl)-8-(1-isopropylpiperidin-4-yl)-6-neopentyl-1-((E)-3-(quinoxalin-2-yl)acryloyl)tetrahydropyrazino[2,1-c][1,2,4]oxadiazine-4,7(3H,6H)-dione], for which, where the note is “PANC-1, MTS, 6 days”, the inhibition at 0.3125 µM came to 29.8% and the inhibition at 1 µM was found to be 101%.
In turn, `CCC(CC)C[C@H]1ON(C(=O)/C=C/c2cnc3ccccc3n2)[C@H]2CN([C@@H]3CCN(CCCCO)C3)C(=O)[C@H](CC(C)(C)C)N2C1=O` [ID-107, (3R, 6S, 9aS)-3-(2-ethylbutyl)-8-((R)-1-(4-hydroxybutyl)pyrrolidin-3-yl)-6-neopentyl-1-((E)-3-(quinoxalin-2-yl)acryloyl)tetrahydropyrazino[2,1-c][1,2,4]oxadiazine-4,7(3H,6H)-dione] displayed an IC50 of 0.2 µM. Also, under “PANC-1, MTS, 6 days”, the inhibition at 0.3125 µM was found to be 94.3% and the inhibition at 1 µM is 98.5%.
